Measured values reported in publication PMC10683023, “Targeting Glial Cells by Organic Anion-Transporting Polypeptide 1C1 (OATP1C1)-Utilizing L-Thyroxine-Derived Prodrugs” (Journal of Medicinal Chemistry, 2023).

What was measured:
oatp1a4/1a5/1a6 = assay: Competitive uptake into mouse primary astrocytes in the presence of OATP1A2 inhibitor naringin; format: cell-based; conditions: 100 μM prodrug, 100 μM NRG, result in words
Procedure: The competitive uptake in the presence of OATP-inhibitors or competing substrates (100 μM), diclofenac (DFC) and flufenamic acid (FFA), for OATP1C1 and naringin (NRG) for OATP1A2 was carried out as described above with HBSS buffer at pH 7.4 containing 100 μM of the studied compound. The cells were preincubated with the inhibitors for 10 min, and the incubation mixture was removed before adding the studied compound and the inhibitor to the cells. The competitive uptake (30 min) with the inhibitor was then carried out as the normal uptake described above. The concentrations of the studied compounds were analyzed by the HPLC methods described below, calculated from the spiked standard curve, and normalized with the protein concentrations.
(§1) The amount of prodrug 1–8 was determined by the HPLC system, which consisted of an Agilent 1100 binary pump (Agilent Technologies Inc., Wilmington, DE), an 1100 micro vacuum degasser, an HP 1050 Autosampler, and an HP 1050 variable wavelength detector, operated at 230–240 nm. The chromatographic separations were achieved on an Agilent Zorbax SB-C18 analytical column (4.4 mm × 150 mm, 5 μm) (Agilent Technologies Inc., Wilmington, DE) by using isocratic elution of water containing 0.1% formic acid (pH ca. 3.0) and acetonitrile containing 0.1% formic acid with ratios of 50:50, 30:70, 40:60, 50:50, 50:50, 40:60, 40:60, and 30:70 (v/v), respectively, for prodrug 1–8. […] The lower limit of quantification for prodrugs 1–8 was 0.20 μM. These HPLC methods were also accurate, precise, and selective over the range of 0.5–20 μM.

[1] = test system: human U-87MG glioma cells; assay: Concentration-dependent cellular uptake into human U-87MG glioma cells; format: cell-based; conditions: for Km / Vmax, cellular uptake, U-87MG: 5–400 μM, 30 min, 37 °C
Procedure: U-87MG (ATCC, HTB-14, unknown origin) was purchased from Lonza (Basel, Switzerland). The cells were cultured in standard conditions (37 °C, 5% CO2) using Dulbecco’s modified Eagle’s medium (DMEM) supplemented with L-glutamine (2.0 mM), heat-inactivated fetal bovine serum (FBS) (10%), penicillin (50 U/mL), and streptomycin (50 μg/mL). U-87MG cells (passages 8–25) were seeded at a density of 1 × 10^5 cells/well onto 24-well plates and used for the uptake experiments 1 day after seeding. All of the studies were carried out as three biological replicates from the same cell passage.
After removal of the culture medium, U-87MG human glioma cells and mouse primary astrocytes were carefully washed with prewarmed Hank’s balanced salt solution (HBSS) containing 125.0 mM NaCl (or choline chloride in Na^+ free conditions), 4.8 mM KCl, 1.2 mM MgSO4, 1.2 mM KH2PO4, 1.3 mM CaCl2, 5.6 mM glucose, and 25.0 mM 4-(2-hydroxyethyl)piperazine-1-ethanesulfonic acid (HEPES) with the pH adjusted to either 7.4 or pH 8.5 with 1 M NaOH (or KOH in sodium-free conditions). In the experiments at lower pH (4.5–6.5), 25.0 mM HEPES was replaced by 2-(N-morpholino) ethanesulfonic acid (MES), and the pH was adjusted to 4.5, 5.5, and 6.5 by 1.0 M NaOH. Preincubation was done with 500 μL of prewarmed HBSS at 37 °C for 10 min before adding the substrate for the uptake experiments. The functionality of OATP1C1 in human glioma U-87MG cells was studied with a known substrate (L-thyroxine, T4) and of oatp1a4, 1a5, and 1a6 in mouse primary astrocytes with [6,7-^3H(N)]-estrone-3-sulfate (ES) by incubating the uptake solution (250 μL in HBSS) consisting of 5–400 μM of the substrate at 37 °C for 30 min. After incubation, the uptake was stopped by adding 500 μL of ice-cold HBSS, and the cells were washed two times with ice-cold HBSS (2 × 500 μL). The cells were then lysed with 500 μL of 0.1 M NaOH (60 min), the lysate was neutralized, and the protein was precipitated with acidic acetonitrile (ACN with 4.8% formic acid). The supernatants were analyzed by the high-performance liquid chromatography (HPLC) methods described below (T4) or by using a liquid scintillation counter (MicroBeta2 counter, PerkinElmer, Waltham, MA) (ES). The concentrations of T4 and ES were calculated from the spiked standard curve and normalized with the protein concentrations. The protein concentrations on each plate were determined as a mean of three samples by Bio-Rad Protein Assay, based on the Bradford dye-binding method, using bovine serum albumin (BSA) as a standard protein and measuring the absorbance (595 nm) by a multiplate reader (EnVision, PerkinElmer, Inc., Waltham, MA). The OATP-mediated uptake was confirmed by changing the pH of the uptake buffer in the absence of sodium ions, and in the case of OATP1C1 in human U-87MG cells, the uptake of T4 (100 μM) was studied in the presence of competing OATP1C1-ligands, diclofenac and flufenamic acid (100 μM), and in the case of oatp1a4/1a5/1a6 in mouse primary astrocytes, the uptake of ES (100 μM) was studied in the presence of competing OATO1A2-ligand, naringin (100 μM).
Cellular uptake of prodrugs 1–8 was studied as described for L-thyroxine above by adding compounds at a concentration of 5–400 μM in prewarmed HBSS buffer (250 μL) on the cell layer and incubating at 37 °C for 30 min (uptake was linear with all compounds up to 30 min). Subsequently, the cells were washed three times with ice-cold HBSS and lysed with 500 μL of 0.1 M NaOH (60 min). The lysate was neutralized; the proteins were precipitated with acidic ACN (containing 4.8% formic acid), and the supernatants were analyzed by the (HPLC) methods described below. The concentrations of each prodrug normalized to protein concentration were calculated from the standard curve prepared by spiking known concentrations of compounds into ACN-precipitated cell lysate. […]

[2] = Enzymatic bioconversion in human plasma; format: in vitro ADME; conditions: after 5 h incubation, 37 °C, mean ± SD, n = 3
Procedure: The rates of bioactivation of the prodrugs 1–8 in mouse and human liver S9 fractions, as well as in mouse primary astrocyte–microglia homogenate, were determined at +37 °C. The incubation mixtures were prepared by mixing liver S9 subcellular fraction or brain cell homogenate (final protein concentration 1.0 mg/mL) with isotonic Tris–HCl buffer (pH 7.4) and 10 mM prodrug stock solution in DMSO (the initial concentration of prodrugs was 100 μM and the DMSO concentration was […]). The mixture was incubated for 5 h, and the samples ([…]) were withdrawn at appropriate intervals. The enzymatic reaction was terminated by the addition of ice-cold acetonitrile ([…]), and the samples were centrifuged for 5 min at 12 000 rpm at room temperature and kept on ice until the supernatants were analyzed by the HPLC method described below. In blank reactions, the S9 fractions were replaced with the same volume of buffer. The pseudo-first-order half-lives (t1/2) for the rates of bioconversion of the prodrugs were calculated from the slope of the linear portion of the plotted logarithm of the remaining prodrug concentration versus time. The rates of bioactivation of prodrugs 1–8 in human plasma and mouse serum were determined at 37 °C as above by adding 10 mM stock solution of the prodrug to plasma/serum in a ratio of 1:10 and analyzed similarly to the samples from S9 fractions.
as §1

Compound	Enzymatic stability, remaining percentage, human plasma [2] [%]	Cellular uptake in the presence of OATP1A2 inhibitor naringin (NRG) (oatp1a4/1a5/1a6)	Km [1] [µM]	Vmax, cellular uptake, U-87MG [1] [nmol/min/mg]	Vmax, cellular uptake, U-87MG ([1]; listed as PD2) [nmol/min/mg]	Transport capacity relative to prodrug 3 ([1]; at 200 μM concentration, U-87MG cells)	Affinity relative to corresponding DIT prodrug 3 ([1]; from Km values, U-87MG cells) [times]	Vmax, cellular uptake, U-87MG ([1]; listed as PD5) [nmol/min/mg]	Vmax, cellular uptake, U-87MG ([1]; listed as PD6) [nmol/min/mg]
CC(C(=O)Oc1c(I)cc(Oc2c(I)cc(C[C@H](N)C(=O)O)cc2I)cc1I)c1cccc(C(=O)c2ccccc2)c1 (mixture of isomers) [Prodrug 2, (2S)-2-Amino-3-(4-(4-((2-(3-benzoylphenyl)propanoyl)oxy)-3,5-diiodophenoxy)-3,5-diiodophenyl)propanoic acid]	96.47 ± 3.53	greatest decrease	118 ± 27	13	13.0 ± 1.3	–	–	–	–
N[C@@H](Cc1cc(I)c(OC(=O)c2ccccc2O)c(I)c1)C(=O)O [Prodrug 3, (S)-2-Amino-3-(4-((2-hydroxybenzoyl)oxy)-3,5-diiodophenyl)propanoic acid]	68.94 ± 2.01	–	539 ± 97	9.9 ± 1.2	–	–	–	–	–
N[C@@H](Cc1cc(I)c(Oc2cc(I)c(OC(=O)c3ccccc3O)c(I)c2)c(I)c1)C(=O)O [Prodrug 4, (S)-2-Amino-3-(4-(4-((2-hydroxybenzoyl)oxy)-3,5-diiodophenoxy)-3,5-diiodophenyl)propanoic acid]	97.17 ± 2.83	–	106 ± 32	9.0 ± 1.1	–	ca. 3.5 times	5	–	–
COc1ccc2cc([C@H](C)C(=O)Oc3c(I)cc(C[C@H](N)C(=O)O)cc3I)ccc2c1 [Prodrug 5, (S)-2-Amino-3-(3,5-diiodo-4-(((S)-2-(6-methoxynaphthalen-2-yl)propanoyl)oxy)phenyl)propanoic acid]	70.94 ± 29.06	increased	138 ± 79	9.0	–	–	–	9.0 ± 3.7	–

Continued, in another order:

Enzymatic stability, remaining percentage, human plasma [2] [%]	Compound	Cellular uptake in the presence of OATP1A2 inhibitor naringin (NRG) (oatp1a4/1a5/1a6)	Km [1] [µM]	Vmax, cellular uptake, U-87MG [1] [nmol/min/mg]	Vmax, cellular uptake, U-87MG ([1]; listed as PD2) [nmol/min/mg]	Transport capacity relative to prodrug 3 ([1]; at 200 μM concentration, U-87MG cells)	Affinity relative to corresponding DIT prodrug 3 ([1]; from Km values, U-87MG cells) [times]	Vmax, cellular uptake, U-87MG ([1]; listed as PD5) [nmol/min/mg]	Vmax, cellular uptake, U-87MG ([1]; listed as PD6) [nmol/min/mg]
90.52 ± 9.48	CC(C(=O)Oc1c(I)cc(C[C@H](N)C(=O)O)cc1I)c1ccc(-c2ccccc2)c(F)c1 (mixture of isomers) [Prodrug 7, (2S)-2-Amino-3-(4-((2-(2-fluoro-[1,1′-biphenyl]-4-yl)propanoyl)oxy)-3,5-diiodophenyl)propanoic acid]	–	381 ± 73	19.8 ± 2.3	–	–	–	–	–
97.17 ± 2.83	CC(C(=O)Oc1c(I)cc(Oc2c(I)cc(C[C@H](N)C(=O)O)cc2I)cc1I)c1ccc(-c2ccccc2)c(F)c1 (mixture of isomers) [Prodrug 8, (2S)-2-Amino-3-(4-(4-((2-(2-fluoro-[1,1′-biphenyl]-4-yl)propanoyl)oxy)-3,5-diiodophenoxy)-3,5-diiodophenyl)propanoic acid]	–	221 ± 48	21.5 ± 2.4	–	–	–	–	–
96.32 ± 3.68	COc1ccc2cc([C@H](C)C(=O)Oc3c(I)cc(Oc4c(I)cc(C[C@H](N)C(=O)O)cc4I)cc3I)ccc2c1 [Prodrug 6, (S)-2-Amino-3-(4-(3,5-diiodo-4-(((S)-2-(6-methoxynaphthalen-2-yl)propanoyl)oxy)phenoxy)-3,5-diiodophenyl)propanoic acid]	increased	138 ± 36	13.5	–	–	–	–	13.5 ± 1.6
